Measured values from ChEMBL document CHEMBL1141872 (Bioorg Med Chem Lett, 2005).

Assays:
[1] = target: 3',5'-cyclic-AMP phosphodiesterase 4B (Homo sapiens, UniProt Q07343); test: Inhibitory activity against PDE4B
[2] = target: 3',5'-cyclic-AMP phosphodiesterase 4D (Homo sapiens, UniProt Q08499); test: Inhibitory activity against PDE4D
[3] = target: 3',5'-cyclic-AMP phosphodiesterase 4A (Homo sapiens, UniProt P27815); test: Inhibitory activity against PDE4A
[4] = target: 3',5'-cyclic-AMP phosphodiesterase 4C (Homo sapiens, UniProt Q08493); test: Inhibitory activity against PDE4C
Chain of 3',5'-cyclic-AMP phosphodiesterase 4C (Q08493 whole entry): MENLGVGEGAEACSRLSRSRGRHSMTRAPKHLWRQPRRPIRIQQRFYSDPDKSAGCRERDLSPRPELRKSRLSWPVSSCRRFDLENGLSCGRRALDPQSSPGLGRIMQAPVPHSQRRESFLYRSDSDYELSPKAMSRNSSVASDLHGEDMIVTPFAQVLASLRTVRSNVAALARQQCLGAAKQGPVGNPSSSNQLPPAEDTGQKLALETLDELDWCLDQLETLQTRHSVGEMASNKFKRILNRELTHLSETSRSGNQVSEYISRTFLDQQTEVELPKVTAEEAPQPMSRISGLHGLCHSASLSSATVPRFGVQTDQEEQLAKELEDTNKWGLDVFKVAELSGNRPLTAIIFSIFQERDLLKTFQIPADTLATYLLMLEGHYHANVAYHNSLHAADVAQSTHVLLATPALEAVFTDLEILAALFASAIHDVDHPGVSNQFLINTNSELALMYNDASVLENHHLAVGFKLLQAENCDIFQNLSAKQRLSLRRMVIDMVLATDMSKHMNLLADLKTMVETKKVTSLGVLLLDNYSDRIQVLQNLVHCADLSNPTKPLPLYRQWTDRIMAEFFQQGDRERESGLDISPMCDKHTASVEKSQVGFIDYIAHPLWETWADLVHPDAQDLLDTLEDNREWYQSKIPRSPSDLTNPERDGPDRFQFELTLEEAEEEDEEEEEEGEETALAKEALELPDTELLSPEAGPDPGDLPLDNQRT

[5] = target: T1, Phosphodiesterase 4 (Homo sapiens, UniProt P27815+Q08499+Q07343+Q08493); test: Inhibition of LPS-induced TNFalpha production in human whole blood; type: functional, tissue-based
[6] = tested on: Cavia porcellus; test: Inhibition of ovalbumin-induced bronchoconstriction in guinea pig at 0.3 mg/kg, ip; type: functional; settings: route intraperitoneal
[7] = Emetic threshold as plasma concentration in ferrets after 1.0 mg/kg oral dose; type: ADME, organism-based, Mustela putorius furo; set-up: dose 1 mg/kg, route oral; settings: ferret, read-out: Emesis_Cmax
[8] = Emetic threshold as plasma concentration in squirrel monkeys after 3 mg/kg oral dose; type: ADME, organism-based; set-up: dose 3 mg/kg, route oral; settings: saimiri, read-out: Emesis_Cmax
[9] = tested on: Cavia porcellus; test: Inhibition of ovalbumin-induced bronchoconstriction in guinea pig at 0.1 mg/kg, ip; type: functional; settings: route intraperitoneal
[10] = tested on: Mustela putorius furo; test: Emetic threshold as plasma concentration in ferrets after 10 mg/kg oral dose; type: ADME, organism-based; set-up: dose 10 mg/kg, route oral; settings: ferret, in vivo
[11] = target: T1, Phosphodiesterase 4; test: Inhibition of LPS-induced TNFalpha production in squirrel monkey whole blood; type: functional, tissue-based, Saimiri sciureus; settings: target entry is the homologue from another species
[12] = tested on: Cavia porcellus; test: Inhibition of ovalbumin-induced bronchoconstriction in guinea pig at 1 mg/kg, ip; type: functional; settings: route intraperitoneal
[13] = Emetic threshold as plasma concentration in squirrel monkeys after 10 mg/kg oral dose; type: ADME, organism-based; set-up: dose 10 mg/kg, route oral; settings: saimiri, read-out: Emesis_Cmax
[14] = Emetic threshold as plasma concentration in squirrel monkeys after 0.5 mg/kg oral dose; type: ADME, organism-based; set-up: dose 0.5 mg/kg, route oral; settings: saimiri, read-out: Emesis_Cmax
[15] = tested on: Ovis aries; test: Inhibition of late-phase antigen induced bronchoconstriction in Ascaris sensitive sheep at 0.5 mg/kg/day, iv; type: functional
[16] = tested on: Cavia porcellus; test: Inhibition of ovalbumin-induced bronchoconstriction in guinea pig at 0.01 mg/kg, ip; type: functional; settings: route intraperitoneal
[17] = tested on: Ovis aries; test: Inhibition of early-phase antigen induced bronchoconstriction in Ascaris sensitive sheep at 0.5 mg/kg/day, iv; type: functional
[18] = Tmax in rat at 20 mg/kg, po; type: ADME, organism-based; set-up: dose 20 mg/kg, route oral; settings: in vivo
[19] = tested on: Cavia porcellus; test: Inhibition of ovalbumin-induced bronchoconstriction in guinea pig at 0.03 mg/kg, ip; type: functional; settings: route intraperitoneal
[20] = Oral bioavailability in rat at 20 mg/kg, po; type: ADME, organism-based; settings: in vivo
[21] = Cmax in rat at 20 mg/kg, po; type: ADME, organism-based; set-up: dose 20 mg/kg, route oral; settings: in vivo
[22] = Emetic threshold as plasma concentration in ferrets after 30 mg/kg oral dose; type: ADME, organism-based, Mustela putorius furo; set-up: dose 30 mg/kg, route oral; settings: ferret, read-out: Emesis_Cmax

Chain of 3',5'-cyclic-AMP phosphodiesterase 4A (P27815 whole entry): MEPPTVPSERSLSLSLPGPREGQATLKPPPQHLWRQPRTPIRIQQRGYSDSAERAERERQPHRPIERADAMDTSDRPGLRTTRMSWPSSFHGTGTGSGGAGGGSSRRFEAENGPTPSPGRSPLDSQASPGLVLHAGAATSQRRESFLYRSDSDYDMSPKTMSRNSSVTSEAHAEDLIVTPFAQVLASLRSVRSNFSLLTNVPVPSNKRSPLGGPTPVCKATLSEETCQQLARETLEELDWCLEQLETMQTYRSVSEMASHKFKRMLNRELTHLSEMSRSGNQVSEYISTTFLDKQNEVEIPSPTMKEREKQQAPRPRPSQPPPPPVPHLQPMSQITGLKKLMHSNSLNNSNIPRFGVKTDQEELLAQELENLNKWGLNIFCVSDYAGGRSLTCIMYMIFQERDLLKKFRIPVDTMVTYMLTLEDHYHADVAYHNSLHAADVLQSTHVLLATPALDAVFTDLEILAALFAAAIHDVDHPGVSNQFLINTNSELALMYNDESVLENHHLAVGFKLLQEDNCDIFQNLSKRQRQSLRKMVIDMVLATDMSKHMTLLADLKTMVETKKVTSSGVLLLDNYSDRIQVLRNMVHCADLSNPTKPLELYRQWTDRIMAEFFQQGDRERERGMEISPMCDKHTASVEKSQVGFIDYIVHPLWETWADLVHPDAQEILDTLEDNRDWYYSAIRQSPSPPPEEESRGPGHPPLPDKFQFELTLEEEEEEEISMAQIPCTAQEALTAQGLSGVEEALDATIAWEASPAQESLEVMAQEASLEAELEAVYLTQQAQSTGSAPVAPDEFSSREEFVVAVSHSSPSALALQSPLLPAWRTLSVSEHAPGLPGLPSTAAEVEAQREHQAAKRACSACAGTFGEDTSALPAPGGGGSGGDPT
Chain of 3',5'-cyclic-AMP phosphodiesterase 4D (Q08499 whole entry): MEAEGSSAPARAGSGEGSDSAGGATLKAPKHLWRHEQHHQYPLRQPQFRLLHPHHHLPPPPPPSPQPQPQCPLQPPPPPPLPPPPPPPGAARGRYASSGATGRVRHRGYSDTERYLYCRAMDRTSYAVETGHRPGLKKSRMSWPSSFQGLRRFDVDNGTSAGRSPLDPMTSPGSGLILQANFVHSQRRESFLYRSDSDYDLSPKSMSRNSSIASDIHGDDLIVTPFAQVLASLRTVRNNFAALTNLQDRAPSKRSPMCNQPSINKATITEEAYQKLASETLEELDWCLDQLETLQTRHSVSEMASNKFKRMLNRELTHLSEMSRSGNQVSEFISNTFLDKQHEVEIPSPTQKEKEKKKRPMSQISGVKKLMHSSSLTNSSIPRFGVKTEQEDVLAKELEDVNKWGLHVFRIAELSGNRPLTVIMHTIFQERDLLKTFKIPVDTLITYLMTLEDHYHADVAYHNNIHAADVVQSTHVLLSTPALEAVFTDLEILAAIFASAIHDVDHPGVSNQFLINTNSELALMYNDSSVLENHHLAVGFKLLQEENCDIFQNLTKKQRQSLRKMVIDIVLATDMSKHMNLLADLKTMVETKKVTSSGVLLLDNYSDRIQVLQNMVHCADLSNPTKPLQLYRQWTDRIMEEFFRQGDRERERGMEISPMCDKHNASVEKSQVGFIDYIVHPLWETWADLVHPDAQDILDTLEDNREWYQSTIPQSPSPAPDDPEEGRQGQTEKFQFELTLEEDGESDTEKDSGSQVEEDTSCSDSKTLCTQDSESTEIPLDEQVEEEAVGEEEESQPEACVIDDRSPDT
Chain of 3',5'-cyclic-AMP phosphodiesterase 4B (Q07343 whole entry): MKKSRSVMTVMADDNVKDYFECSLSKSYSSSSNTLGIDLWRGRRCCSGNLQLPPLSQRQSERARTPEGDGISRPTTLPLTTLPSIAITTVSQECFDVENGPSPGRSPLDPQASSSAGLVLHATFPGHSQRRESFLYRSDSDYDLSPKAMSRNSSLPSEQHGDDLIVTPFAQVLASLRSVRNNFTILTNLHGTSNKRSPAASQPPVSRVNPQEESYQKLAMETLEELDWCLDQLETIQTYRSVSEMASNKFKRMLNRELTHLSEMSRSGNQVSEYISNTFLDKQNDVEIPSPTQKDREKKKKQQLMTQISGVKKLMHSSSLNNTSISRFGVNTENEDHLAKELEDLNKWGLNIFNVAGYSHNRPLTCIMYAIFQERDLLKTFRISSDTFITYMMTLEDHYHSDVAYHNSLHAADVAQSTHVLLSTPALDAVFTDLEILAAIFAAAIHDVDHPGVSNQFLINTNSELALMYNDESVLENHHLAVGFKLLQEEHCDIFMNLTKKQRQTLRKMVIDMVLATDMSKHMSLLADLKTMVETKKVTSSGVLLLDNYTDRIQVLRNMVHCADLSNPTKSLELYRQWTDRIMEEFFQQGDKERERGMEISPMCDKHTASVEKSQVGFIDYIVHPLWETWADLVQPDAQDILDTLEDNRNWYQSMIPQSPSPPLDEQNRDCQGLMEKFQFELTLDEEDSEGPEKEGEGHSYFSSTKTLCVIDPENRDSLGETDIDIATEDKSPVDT

CC(C)c1cc(-c2cccc(/C=C(\c3ccc(S(C)(=O)=O)cc3)c3nccs3)c2)c2ncccc2c1
IC50 [1]: 0.3 nM | IC50 [2]: 0.19 nM | IC50 [3]: 0.47 nM | IC50 [4]: 0.7 nM | IC50 [5]: 120 nM

CC(C)c1cc(-c2cccc(/C=C(/C(=O)O)c3ccc(S(C)(=O)=O)cc3)c2)c2ncccc2c1
IC50 [1]: 0.3 nM | IC50 [2]: 0.5 nM | IC50 [3]: 0.3 nM | IC50 [4]: 3.8 nM | IC50 [5]: 1600 nM

Cc1ccc(/C(=C/c2cccc(-c3cc(C(C)C)cc4cccnc34)c2)c2ccc(S(C)(=O)=O)cc2)nc1
IC50 [1]: 0.2 nM | IC50 [2]: 0.2 nM | IC50 [3]: 0.2 nM | IC50 [4]: 0.4 nM | IC50 [5]: 120 nM

Cc1noc(/C(=C/c2cccc(-c3cc(C(C)C)cc4cccnc34)c2)c2ccccn2)n1
IC50 [1]: 0.3 nM | IC50 [2]: 0.6 nM | IC50 [3]: 0.5 nM | IC50 [4]: 5.7 nM | IC50 [5]: 1200 nM

COc1cccc(-c2cc(Cc3ccncc3)cc3cccnc23)c1
inhibition in vivo at 0.3 mg/kg [6]: 70% | IC50 [1]: 2.3 nM | IC50 [2]: 2.5 nM | Cmax [7]: 200 nM | IC50 [3]: 1.5 nM | IC50 [4]: 3.3 nM | IC50 [5]: 8300 nM

CC(C)c1cc(-c2cccc(C(Cc3cc[n+]([O-])cc3)c3ccc(Cl)cc3)c2)c2ncccc2c1 (stereo not given)
IC50 [1]: 19 nM | IC50 [2]: 45 nM | IC50 [3]: 52 nM | IC50 [4]: 68 nM | IC50 [5]: 11000 nM

CC(C)NC(=O)/C(=C/c1cccc(-c2cc(C(C)(C)S(C)(=O)=O)cc3cccnc23)c1)c1ccc(S(C)(=O)=O)cc1
Cmax [8]: > 2500 nM | IC50 [1]: 0.5 nM | IC50 [2]: 2.3 nM | IC50 [3]: 0.9 nM | IC50 [4]: 14 nM | inhibition in vivo at 0.1 mg/kg [9]: 59% | IC50 [5]: 930 nM

CC(C)c1cc(-c2cccc(CC(c3ccncc3)C(C)(C)O)c2)c2ncccc2c1 (stereo not given)
Emesis_Cmax [10]: 2.9 µM | IC50 [11]: 450 nM | IC50 [1]: 1.8 nM | IC50 [2]: 4.4 nM | inhibition in vivo at 1 mg/kg [12]: 47% | IC50 [3]: 3.4 nM | Cmax [13]: 11900 nM | IC50 [4]: 106 nM | IC50 [5]: 12000 nM

CC(C)c1cc(-c2cccc(/C=C(/c3ccc(C(C)(C)O)cc3)c3ccc(S(C)(=O)=O)cc3)c2)c2ncccc2c1
IC50 [1]: 0.3 nM | IC50 [2]: 0.5 nM | IC50 [3]: 0.4 nM | IC50 [4]: 0.5 nM | IC50 [5]: 610 nM

CC(c1cc(-c2cccc(/C=C(\c3ccc(S(C)(=O)=O)cc3)c3ncc(C(C)(C)O)s3)c2)c2ncccc2c1)S(C)(=O)=O (stereo not given)
IC50 [1]: 1.1 nM | IC50 [2]: 2 nM | IC50 [3]: 1.7 nM | IC50 [4]: 11 nM | IC50 [5]: 210 nM

CC(C)NC(=O)/C(=C\c1cccc(-c2cc(C(C)(C)C#N)cc3cccnc23)c1)c1ccc(S(C)(=O)=O)cc1
IC50 [1]: 0.4 nM | IC50 [2]: 0.5 nM | IC50 [3]: 1 nM | IC50 [4]: 11.4 nM | IC50 [5]: 210 nM

[O-][n+]1cccc(C[C@@H](c2ccc(OC(F)F)c(OC3CC3)c2)c2cnc(C(O)(C(F)(F)F)C(F)(F)F)s2)c1
Cmax [14]: 1600 nM | inhibition in vivo at 0.5 mg/kg/day [15]: 92% | inhibition in vivo at 0.01 mg/kg [16]: 62% | IC50 [11]: 5 nM | IC50 [1]: 0.4 nM | IC50 [2]: 0.4 nM | inhibition in vivo at 0.5 mg/kg/day [17]: 68% | IC50 [3]: 0.4 nM | IC50 [4]: 1 nM | IC50 [5]: 90 nM

O=S(=O)(Nc1cccc(-c2cc(Cc3ccncc3)cc3cccnc23)c1)c1ccccc1
Emesis_Cmax [10]: > 2 µM | IC50 [1]: 3 nM | IC50 [2]: 2 nM | inhibition in vivo at 1 mg/kg [12]: 46% | IC50 [3]: 5.6 nM | IC50 [4]: 11.9 nM | IC50 [5]: 7800 nM

CC(C)NC(=O)/C(=C/c1cccc(-c2cc(C(C)(C)C#N)cc3cccnc23)c1)c1ccc(S(C)(=O)=O)cc1
Tmax [18]: 6 h | inhibition in vivo at 0.03 mg/kg [19]: 75% | IC50 [11]: 15 nM | IC50 [1]: 0.3 nM | IC50 [2]: 0.7 nM | bioavailability [20]: 80% | Cmax [21]: 4100 nM | IC50 [3]: 0.8 nM | Cmax [13]: 1900 nM | IC50 [4]: 6.8 nM | IC50 [5]: 70 nM

CC(C)NC(=O)/C(=C/c1cccc(-c2cc(C(C)C)cc3cccnc23)c1)c1ccc(S(C)(=O)=O)cc1
IC50 [1]: 0.3 nM | IC50 [2]: 0.6 nM | IC50 [3]: 0.3 nM | IC50 [4]: 2.9 nM | IC50 [5]: 140 nM

Cc1noc(/C(=C/c2cccc(-c3cc(C(C)(C)S(C)(=O)=O)cc4cccnc34)c2)c2ccc(S(C)(=O)=O)cc2)n1
inhibition in vivo at 0.5 mg/kg/day [15]: 95% | Tmax [18]: 6 h | bioavailability [20]: 100% | inhibition in vivo at 0.5 mg/kg/day [17]: 73% | Cmax [21]: 5100 nM | Cmax [13]: 3800 nM

Cc1noc(/C(=C/c2cccc(-c3cc(C(C)C)cc4cccnc34)c2)c2ccc(S(C)(=O)=O)cc2)n1
Tmax [18]: 0.5 h | IC50 [1]: 0.07 nM | IC50 [2]: 0.2 nM | bioavailability [20]: 11% | Cmax [21]: 500 nM | IC50 [3]: 0.16 nM | IC50 [4]: 1.2 nM | IC50 [5]: 260 nM

CC(C)c1cc(-c2cccc(C(Cc3ccncc3)c3ccc(Cl)cc3)c2)c2ncccc2c1 (stereo not given)
IC50 [1]: 6.4 nM | IC50 [2]: 38 nM | IC50 [3]: 11.8 nM | IC50 [4]: 22 nM | IC50 [5]: 31000 nM

COc1ccc([C@H](Cc2ccncc2)c2ccccc2)cc1OC1CCCC1 [CDP840]
inhibition in vivo at 0.5 mg/kg/day [15]: 88% | IC50 [11]: 600 nM | IC50 [1]: 1.4 nM | inhibition in vivo at 1 mg/kg [12]: 54% | inhibition in vivo at 0.5 mg/kg/day [17]: 39% | IC50 [3]: 2.1 nM | Cmax [13]: 4000 nM | IC50 [4]: 4.5 nM | Cmax [22]: 2500 nM | IC50 [5]: 14000 nM
